Read-outs that look alike come from different tables or passages of the source.
Legend:
[1] = tested on: Leishmania donovani axenic amastigote parasites; test: Leishmania donovani axenic amastigote proliferation assay; type: cell-based; details: axenic amastigotes in vitro, read-out: L. donovani amastigotes EC50
How it was run: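 EC50 values come from CellTiter-Glo luminescence after 2-day compound exposure of axenic amastigotes (9600 per well) at 37 °C, 5% CO2. Medium: RPMI 1640, 20% heat-inactivated FBS, folic acid, adenosine, D-glucose, 25 mM MES, adjusted to pH 5.5.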

[2] = tested on: L. donovani HU3 strain in mouse peritoneal macrophages; test: Assay for proliferation of Leishmania parasites in mouse peritoneal macrophages; type: cell-based, Leishmania donovani; details: Leishmania donovani, Peritoneal macrophage, read-out: L. donavani Macrophage EC50
How it was run: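 EC50 derives from counting SYBR Green-stained parasite nuclei by high-content imaging after 5 days' compound exposure. Host cells were uninfected BALB/c peritoneal macrophages, infected for 24 h before dosing with spleen-derived L. donovani HU3 parasites from mice infected 9–11 weeks.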

[3] = tested on: Trypanosoma brucei Lister 427 strain bloodstream form; test: Assay for proliferation of kinetoplastid parasite Trypanosoma brucei; type: cell-based; details: Lister 427 bloodstream form, 48 hours, read-out: T. brucei EC50
How it was run: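 Bloodstream-form T. brucei Lister 427 in HMI-9 medium was exposed to compound (DMSO vehicle) for 48 hours at 37° C, 5% CO2. Parasite growth was read as ATP by CellTiter-Glo luminescence, with EC50 calculated from percent inhibition.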

[4] = tested on: Trypanosoma cruzi amastigotes (Tulahuen strain) cultured in 3T3 fibroblast cells; test: Assay for proliferation of kinetoplastid parasite Trypanosoma cruzi; type: cell-based; details: 144 h, 6 day incubation
Excerpt: Assay for Proliferation of Kinetoplastid Parasite Trypanosoma cruzi.
Compounds of the invention can be assayed to measure their capacity to inhibit proliferation of kinetoplastid parasite Trypanosoma cruzi. The screening procedure is for identifying compounds with inhibitor activity against Trypanosoma cruzi amastigotes cultured in 3T3 fibroblast cells. The assay is done using the mammalian stage (amastigotes) of T. cruzi that replicates in the intracellular space of host cells. The host cells are initially infected with the culture-derived trypomastigotes that rapidly invade and then divide as amastigotes. The protocol uses the Tulahuen strain of T. cruzi that has been engineered to express the E. coli beta-galactosidase gene (Lac-Z) (Antimicr. Agents Chemoth. 40:2592, 1996). This allows for a colorimetric readout by using the substrate CPRG and an absorbance plate reader.
3T3 fibroblast cells are re-suspended in RPMI-1640 medium without phenol red medium supplemented with 10% FBS (heat inactivated), 100 μg/ml penicillin, and 100 μg/ml streptomycin. Forty μL of suspension (1,000 cells) is dispensed into 384-well plates and incubated overnight at 37° C. temperature and in atmosphere containing 5% CO2. The following day, 100 nL of compounds of the invention in DMSO are added to plate wells containing 3T3 cells. At the same time control compounds (benznidazole and nifurtimox) and DMSO are added to plates to serve as the positive and negative controls, respectively. After that, 10 μL of media containing 10,000 T. cruzi trypomastigotes are added to each plate well and plates are placed back into incubators. After 6 day incubation, 10 μL of reagent solution (0.6 mM CPRG, 0.6% NP-40 in PBS) is added to plates and incubated at room temperature for 2 hours. Absorbance is then measured on SpectraMax Gemini […] to determine relative number of T. cruzi cells present in each plate well. The percentage inhibition of 50%, EC50, is calculated for each compound. […] Typically, the EC50 is 10 μM or less.

[5] = Tulahuen amastigotes in 3T3 fibroblast cells, read-out: T cruzi EC50

## Cc1cnc2nc(-c3cc(NC(=O)c4ccc(S(C)(=O)=O)s4)ccc3Cl)[nH]c2c1 [Compound 175, N-(4-chloro-3-{6-methyl-1H-imidazo [4,5-b]pyridin-2-yl}phenyl)-5-methanesulfonylthiophene-2-carboxamide]
[1]
  EC50: > 25 µM
[2]
  EC50: > 28.9 µM
[3]
  EC50: > 20.5 µM
[4]; [5]
  EC50: 0.067 µM
[4]; TULAHUEN, T. cruzi in 3T3 fibroblast cells, CPRG absorbance, read-out: EC50
  EC50: 0.067 µM

## Cc1cnc2nc(-c3cc(NC(=O)c4ccc(F)s4)ccc3Cl)[nH]c2c1 [Compound 185]
[1]
  EC50: 11.2 µM
[2]
  EC50: > 30.7 µM
[3]
  EC50: 1.77 µM
[4]; [5]
  EC50: 0.96 µM

## Cc1cnc2nc(-c3cc(NC(=O)c4cccnn4)ccc3Cl)[nH]c2c1 [Compound 186]
[1]
  EC50: > 25 µM
[2]
  EC50: > 34.7 µM
[3]
  EC50: 4.5 µM
[4]; [5]
  EC50: > 11.5 µM

## Cc1cnc2nc(-c3cc(NC(=O)c4cncnc4)ccc3Cl)[nH]c2c1 [Compound 187]
[1]
  EC50: 6.9 µM
[2]
  EC50: > 42.2 µM
[3]
  EC50: 4.2 µM
[4]; [5]
  EC50: > 11.5 µM

## Cc1cnc2nc(-c3cc(NC(=O)c4cccc(N5CCOCC5)c4)ccc3Cl)[nH]c2c1 [Compound 195]
[1]
  EC50: 21.2 µM
[2]
  EC50: > 50 µM
[3]
  EC50: 7.8 µM
[4]; [5]
  EC50: 8.8 µM

## Cc1cnc2nc(-c3cc(NC(=O)CCC(=O)O)ccc3Cl)[nH]c2c1 [Compound 201]
[1]
  EC50: > 25 µM
[2]
  EC50: > 50 µM
[3]
  EC50: > 10.8 µM
[4]; [5]
  EC50: > 20 µM

## Cc1cnc2nc(-c3cc(NC(=O)OC(C)C)ccc3Cl)[nH]c2c1 [Compound 216]
[1]
  EC50: 2.59 µM
[2]
  EC50: 2.83 µM
[3]
  EC50: 0.46 µM
[4]; [5]
  EC50: 0.7 µM

## Cc1cnc2nc(-c3cc(NC(=O)OC4CCCC4)ccc3Cl)[nH]c2c1 [Compound 218]
[1]
  EC50: > 25 µM
[2]
  EC50: 7.5 µM
[3]
  EC50: 14.9 µM
[4]; [5]
  EC50: 2.14 µM

## Cc1cnc2nc(-c3cc(NC(=O)OC4CCCCC4)ccc3Cl)[nH]c2c1 [Compound 222]
[1]
  EC50: > 25 µM
[2]
  EC50: > 22.6 µM
[3]
  EC50: > 25 µM
[4]; [5]
  EC50: 6.4 µM

## CCN(CC)CCCCCCNC(=O)Nc1ccc(Cl)c(-c2nc3ncc(C)cc3[nH]2)c1 [Compound 227]
[1]
  EC50: > 25 µM
[2]
  EC50: > 50 µM
[3]
  EC50: > 15.2 µM
[4]; [5]
  EC50: > 20 µM

## Cc1cnc2nc(-c3cc(NC(=O)NCCCCCCN(C)C)ccc3Cl)[nH]c2c1 [Compound 228]
[1]
  EC50: > 25 µM
[2]
  EC50: > 50 µM
[3]
  EC50: > 25 µM
[4]; [5]
  EC50: > 20 µM

## Cc1cnc2nc(-c3cc(NC(=O)N4CC(F)(F)C[C@@H]4c4cccc(F)c4)ccc3Cl)[nH]c2c1 [Compound 229]
[1]
  EC50: > 25 µM
[2]
  EC50: > 50 µM
[3]
  EC50: > 23.3 µM
[4]; [5]
  EC50: > 20 µM

## Cc1cnc2nc(-c3cc(NC(=O)N4CC5CC5C4)ccc3Cl)[nH]c2c1 (stereo not drawn) [Compound 230]
[1]
  EC50: 5.4 µM
[2]
  EC50: 13.3 µM
[3]
  EC50: 1.48 µM
[4]; [5]
  EC50: 3.6 µM

## Cc1cnc2nc(-c3cc(NC(=O)N(C)C4CCCC4)ccc3Cl)[nH]c2c1 [Compound 231]
[1]
  EC50: > 25 µM
[2]
  EC50: 27.9 µM
[3]
  EC50: > 23.2 µM
[4]; [5]
  EC50: > 20 µM

## Cc1cnc2nc(-c3cc(NC(=O)N(C)C4CCOC4)ccc3Cl)[nH]c2c1 (stereo not drawn) [Compound 232]
[1]
  EC50: > 25 µM
[2]
  EC50: > 50 µM
[3]
  EC50: > 25 µM
[4]; [5]
  EC50: > 20 µM

## Cc1cnc2nc(-c3cc(NC(=O)N4CCC(N(C)C)C4)ccc3Cl)[nH]c2c1 (stereo not drawn) [Compound 233]
[1]
  EC50: > 25 µM
[2]
  EC50: > 50 µM
[3]
  EC50: > 25 µM
[4]; [5]
  EC50: > 20 µM

## Cc1cnc2nc(-c3cc(NC(=O)NCCN(C(C)C)C(C)C)ccc3Cl)[nH]c2c1 [Compound 236]
[1]
  EC50: > 25 µM
[2]
  EC50: 28.8 µM
[3]
  EC50: 1.11 µM
[4]; [5]
  EC50: 17.9 µM

## CNC(=O)Nc1ccc(Cl)c(-c2nc3ncc(C)cc3[nH]2)c1 [Compound 238]
[1]
  EC50: > 25 µM
[2]
  EC50: 29.3 µM
[3]
  EC50: 9.2 µM
[4]; [5]
  EC50: > 20 µM

## CON(C)C(=O)Nc1ccc(Cl)c(-c2nc3ncc(C)cc3[nH]2)c1 [Compound 240]
[1]
  EC50: 2.06 µM
[2]
  EC50: 6.1 µM
[3]
  EC50: 0.45 µM
[4]; [5]
  EC50: 0.7 µM

## Cc1cnc2nc(-c3cc(NC(=O)N(C)c4ccccc4)ccc3Cl)[nH]c2c1 [Compound 241]
[1]
  EC50: 14.2 µM
[2]
  EC50: > 47.5 µM
[3]
  EC50: 9.7 µM
[4]; [5]
  EC50: 10.4 µM

From patent US9233961B2, “Compounds and compositions for the treatment of parasitic diseases” (Novartis AG, priority 2013, dated 2016)
